# Test results reported in patent publication US7160908B2, “Dynamic anticancer platinum compounds” (Unitech Pharmaceuticals, Inc., priority 2003, dated 2007).
# Tests used:
# Colon, HT-29 Tumor Cells = assay: Anti-proliferative activity, alamarBlue cell viability, HT-29; format: cell-based, human; conditions: for Percent Growth (Mean of 2): 72-hour incubation, vehicle = 100
# Method: (§1) UTD-4-A was dissolved in 100% DMSO and then diluted with sterile distilled water to obtain initial working solutions of […] in 40% DMSO. A 100-fold dilution was further made in culture media to generate final assay concentrations of […] in 0.4% DMSO.
# (§2) Aliquots of […] of cell suspension (about 2.5×10^3/well) were placed in 96-well microtiter plates in an atmosphere of 5% CO2 at 37° C. After 24 hours, […] of growth medium and […] of test solution or vehicle (40% DMSO) were added respectively per well in duplicate for an additional 72-hour incubation.
# (§3) Thus, the final concentration of DMSO was 0.4%. The test compound, UTD-4-A, was evaluated at concentrations of […]. At the end of incubation, […] of 90% alamarBlue reagent was added to each well for another 6-hour incubation before detection of cell viability by fluorescent intensity. Fluorescent intensity was measured using a Spectraflour Plus plate reader with excitation at 530 nm and emission at 590 nm.
# [1] = test system: Ovary, OVCAR-3 Tumor Cell; assay: Anti-proliferative activity, alamarBlue cell viability, OVCAR-3; format: cell-based, human; conditions: for Percent Growth (Mean of 2): 72-hour incubation, vehicle = 100
# Method: as §1, §2, §3
# [2] = concentrations between 10 and 100 μM
substance,measurement,setting,value
cis-[Pt(NH3)(NH2—CHCH3—CO—O)]Cl [UTD-4-A],Percent Growth (Mean of 2),"Colon, HT-29 Tumor Cells; 1 μM",100 ± 6
same,Percent Growth (Mean of 2),"Colon, HT-29 Tumor Cells; 10 μM",95 ± 8
same,Percent Growth (Mean of 2),"Colon, HT-29 Tumor Cells; 100 μM",41 ± 4
same,growth inhibition relative to the vehicle-treated control,"Colon, HT-29 Tumor Cells; [2]",significant growth inhibition
same,Percent Growth (Mean of 2),[1]; 1 μM,100 ± 6
same,Percent Growth (Mean of 2),[1]; 10 μM,85 ± 3
same,Percent Growth (Mean of 2),[1]; 100 μM,30 ± 3
same,growth inhibition relative to the vehicle-treated control,[1]; [2],significant growth inhibition
